Source: patent EP2628732A1, “Novel crystalline form of rilpivirine hydrochloride” (Sandoz AG, priority 2012, dated 2013)

Legend:
[1] = Solubility determination in 0.01 N aqueous HCl (gravimetric, suspensions stirred, sampled after 30 min); assay type: physicochemical; settings: 0.01 N aqueous HCl at 25 ± 0.1 °C, samples taken after 30 min, monohydrochloride
Description: The solubility data of form E of the present invention and forms A and C of EP1632232 B1 in 0.01 N aqueous HCl at 25 ± 0.1 °C are presented in table 1. Table 1: Solubility data in 0.01 N aqueous HCl at 25 ± 0.1 °C Suspensions of forms A, C and E in 0.01 N aqueous HCl were stirred in closed vessels with a diameter of 25 mm in a thermostatic water bath at 25 ± 0.1 °C. Before the solute was added the solvent was equilibrated to the temperature. Three samples of each modification were taken with […] filter holders attached to volumetric pipettes (2 mL) via a small glass tube after 30 min. They were sucked through Millipore membrane filters (0.45 μm) and 2 mL of the clear solution were poured in vessels which had been dried and tared before. The hydrochloric acid was evaporated in a drying chamber at 60 °C for approximately 15 h before the temperature was further increased to 80 °C for approximately 3 h. To remove residue water, the vessels were subsequently dried at 110 °C and 60 mbar for approximately 3 h. Afterwards the vials with the residue were cooled to room temperature in an exsiccator and weighed on an analysis balance (Mettler AT250). The difference in weight to the tare weight was then measured to determine the solubilities.

[2] = Water content at defined relative humidity; assay type: physicochemical

Cc1cc(C=CC#N)cc(C)c1Nc1ccnc(Nc2ccc(C#N)cc2)n1.Cl [Form A, 4-[[4-[[4-(2-Cyanoethenyl)-2,6-dimethylphenyl]amino]-2-pyrimidinyl]amino]benzonitrile monohydrochloride]
Solubility ([1]; listed as A): 80 µg/mL

Cc1cc(C=CC#N)cc(C)c1Nc1ccnc(Nc2ccc(C#N)cc2)n1.Cl [Form C, 4-[[4-[[4-(2-Cyanoethenyl)-2,6-dimethylphenyl]amino]-2-pyrimidinyl]amino]benzonitrile monohydrochloride]
Solubility ([1]; listed as C): 100 µg/mL

Cc1cc(C=CC#N)cc(C)c1Nc1ccnc(Nc2ccc(C#N)cc2)n1.Cl [Form E, 4-[[4-[[4-(2-Cyanoethenyl)-2,6-dimethylphenyl]amino]-2-pyrimidinyl]amino]benzonitrile monohydrochloride]
Solubility ([1]; listed as E): 270 µg/mL | water ([2]; at a relative humidity of about 0 %): about 0% | water ([2]; at a relative humidity of about 90 %): about 0.8%
